Where two headings read alike, the source gives them in different places.
Experiments:
[1] = molecular target: T1, triton-extracted alpha-synuclein from PD Tissue (Homo sapiens, UniProt P37840); assay: Alpha-synuclein tissue homogenate binding assay (Assay 1), displacement of [^3H]-1000; details: for Selectivity ratio (Assay 2/Assay 1): Aβ Tissue Ki / α-synuclein Tissue Ki; for Ki: read-out: α-synuclein Tissue Ki (Assay 1)
T1 construct: tissue Analytic Biological Services Inc; host or cells: human PD temporal cortex grey matter, Triton X-100 insoluble pellet

[2] = molecular target: aggregated beta amyloid in AD tissue (Homo sapiens, UniProt P05067); assay: Competitive radioligand binding to pathological aggregated beta amyloid in AD tissue (Assay 2), displacement of [^3H]-105; details: Aβ-rich AD frontal cortex homogenate, [^3H]-105, Kd 11.0 nM
Experimental: Frozen human brain samples of Alzheimer's disease (AD) were purchased from Analytic Biological Services Inc. The samples were post-mortem tissue from donors with clinical diagnosis of AD and much of the white matter was dissected out of the frontal cortex in order to enrich the tissue preparations for gray matter. Brain homogenates of gray matter enriched frontal cortex were prepared by homogenizing the tissue in ice cold Phosphate Buffered Saline (PBS), pH 7.4 at 80 mg wet weight tissue per 1 ml for 45 seconds at 4° C., on setting 16 of Polytron. The homogenate was further diluted with ice cold PBS to 30 mg wet weight tissue per 1 ml and homogenized for an additional minute as described above. Homogenates were aliquoted in 5 ml/tube and stored at −70° C. until use.
Radioligand [^3H]-105, prepared as described in ACS Med. Chem. Lett., Vol. 2, pages 498-502, was used in this assay.
For Assay 2 unlabeled test compounds were dissolved in DMSO at 10 mM. Dilutions of tests compounds to various concentrations were made in 100% DMSO at 1000× final assay concentration and 0.225 μl aliquots were dispensed into assay plates. Brain homogenates were diluted to 0.5 mg/ml from original 30 mg/ml volume in Assay Buffer, and 200 μl were added to the assay plate for a final concentration of 100 ug wet weight/assay well. [^3H]-105 was prepared at 10× final concentration in Assay Buffer plus 20% DMSO and 25 μl was added to the assay plate for final assay concentration of 3.0 nM. The plates were incubated at 37° C. for 90 minutes. Unbound and bound ligand were separated by filtration of bound onto GF/B filter plates (pre-treated for 30 min with 0.1% PEI) using a Packard Filtermate and washing away unbound with 2.5 mil ice cold 5 mM Tris at pH 7.4. Filter plates were dried for 1 hr at 57° C. and 50 μl Microscint was added to each well of the plate. The plates were counted for ^3H cpm for 1 min per well using PerkinElmer TopCount.

[3] = insoluble fraction of PD brain homogenate, [^3H]-1000 3.0 nM, Kd 0.90 nM

Chain of aggregated beta amyloid in AD tissue (P05067 672-711 limits assumed): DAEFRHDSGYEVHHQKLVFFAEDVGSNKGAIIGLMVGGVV

| Selectivity ratio (Assay 2/Assay 1) [1] | Ki [1, 3] | Ki [2] | Ki [1] | Structure (SMILES) |
| --- | --- | --- | --- | --- |
| 1500 | 0.8 nM | ≥ 1200 nM |  | FCCOC[C@H]1CN(c2ncc(/C=C/c3ccc(-c4cnco4)nc3)cn2)CCN1c1ncncn1 [Example 41, (R,E)-5-(5-(2-(2-(3-((2-fluoroethoxy)methyl)-4-(1,3,5-triazin-2-yl)piperazin-1-yl)pyrimidin-5-yl)vinyl)pyridin-2-yl)oxazole] |
| 1538 | 0.78 nM | ≥ 1200 nM |  | FCCOC[C@H]1CN(c2ncc(/C=C/c3ccc(-c4cnco4)nc3)cn2)CCN1c1ccncn1 [Example 42, (R,E)-5-(5-(2-(2-(3-((2-fluoroethoxy)methyl)-4-(pyrimidin-4-yl)piperazin-1-yl)pyrimidin-5-yl)vinyl)pyridin-2-yl)oxazole] |
| 2105 | 0.57 nM | ≥ 1200 nM |  | Cn1cc(-c2ncc(C#Cc3cnc(N4CCN(c5ncncn5)[C@@H](COCCF)C4)nc3)cn2)cn1 [Example 44, (R)-2-(2-((2-fluoroethoxy)methyl)-4-(5-((2-(1-methyl-1H-pyrazol-4-yl)pyrimidin-5-yl)ethynyl)pyrimidin-2-yl)piperazin-1-yl)-1,3,5-triazine] |
| 589 | 2.04 nM | ≥ 1200 nM |  | COC[C@H]1CN(c2ncc(C#Cc3ccc(-n4cnnc4)nc3)cn2)CCN1c1cc(F)ncn1 [Example 45, (R)-5-((6-(4H-1,2,4-triazol-4-yl)pyridin-3-yl)ethynyl)-2-(4-(6-fluoropyrimidin-4-yl)-3-(methoxymethyl)piperazin-1-yl)pyrimidine] |
| 929 | 1.29 nM | ≥ 1200 nM |  | COC[C@H]1CN(c2ncc(C#Cc3cnc(-c4cnn(CCF)c4)nc3)cn2)CCN1c1ncncn1 [Example 46, (R)-2-(4-(5-((2-(1-(2-fluoroethyl)-1H-pyrazol-4-yl)pyrimidin-5-yl)ethynyl)pyrimidin-2-yl)-2-(methoxymethyl)piperazin-1-yl)-1,3,5-triazine] |
| 2673 | 0.449 nM | ≥ 1200 nM |  | Cn1cc(-c2ccc(C#Cc3cnc(N4CCN(c5ncncn5)[C@@H](COCCF)C4)nc3)cn2)cn1 [Example 50, (R)-2-(2-((2-fluoroethoxy)methyl)-4-(5-((6-(1-methyl-1H-pyrazol-4-yl)pyridin-3-yl)ethynyl)pyrimidin-2-yl)piperazin-1-yl)-1,3,5-triazine] |
| 654 | 1.83 nM | ≥ 1200 nM |  | Cn1cc(-c2ncc(C#Cc3cnc(N4CCN(c5ncccn5)[C@@H](COCCF)C4)nc3)cn2)cn1 [Example 51, (R)-2-(3-((2-fluoroethoxy)methyl)-4-(pyrimidin-2-yl)piperazin-1-yl)-5-((2-(1-methyl-1H-pyrazol-4-yl)pyrimidin-5-yl)ethynyl)pyrimidine] |
| 857 |  | ≥ 1200 nM | 1.4 nM | Cn1cc(-c2ncc(C#Cc3cnc(N4CCN(c5ncccn5)[C@@H](COCCOCCF)C4)nc3)cn2)cn1 [Example 52, (R)-2-(3-((2-(2-fluoroethoxy)ethoxy)methyl)-4-(pyrimidin-2-yl)piperazin-1-yl)-5-((2-(1-methyl-1H-pyrazol-4-yl)pyrimidin-5-yl)ethynyl)pyrimidine] |
| 7 | 4.41 nM | 32 nM |  | COC[C@H]1CN(c2cnc(C#Cc3ccc(-n4ccnc4)nc3)c(F)n2)CCN1c1ncccn1 [Example 57, (R)-2-(4-(5-((6-(1H-imidazol-1-yl)pyridin-3-yl)ethynyl)-6-fluoropyrazin-2-yl)-2-(methoxymethyl)piperazin-1-yl)pyrimidine] |
| 237 | 5.06 nM | ≥ 1200 nM |  | COC[C@H]1CN(c2ncc(C#Cc3ccc(-n4cnnc4F)nc3)cn2)CCN1c1ncccn1 [Example 59, (R)-5-((6-(3-fluoro-4H-1,2,4-triazol-4-yl)pyridin-3-yl)ethynyl)-2-(3-(methoxymethyl)-4-(pyrimidin-2-yl)piperazin-1-yl)pyrimidine] |
| 538 | 2.23 nM | ≥ 1200 nM |  | COC[C@H]1CN(c2ncc(C#Cc3ccc(-n4ccnc4)nc3)cn2)CCN1c1nccc(F)n1 [Example 60, (R)-2-(4-(5-((6-(1H-imidazol-1-yl)pyridin-3-yl)ethynyl)pyrimidin-2-yl)-2-(methoxymethyl)piperazin-1-yl)-4-fluoropyrimidine] |
| 805 | 1.49 nM | ≥ 1200 nM |  | COC[C@H]1CN(c2ncc(C#Cc3ccc(-n4ccnc4)nc3)cn2)CCN1c1ccnc(F)n1 [Example 61, (R)-4-(4-(5-((6-(1H-imidazol-1-yl)pyridin-3-yl)ethynyl)pyrimidin-2-yl)-2-(methoxymethyl)piperazin-1-yl)-2-fluoropyrimidine] |
| 811 | 1.48 nM | ≥ 1200 nM |  | FCCOC[C@@H]1CN(c2ncc(C#Cc3ccc(-c4cnco4)nc3)cn2)CCN1c1ncncn1 [Example 62, (S)-5-(5-((2-(3-((2-fluoroethoxy)methyl)-4-(1,3,5-triazin-2-yl)piperazin-1-yl)pyrimidin-5-yl)ethynyl)pyridin-2-yl)oxazole] |
| 1314 | 0.913 nM | ≥ 1200 nM |  | OCC(F)COC[C@H]1CN(c2ncc(C#Cc3ccc(-n4ccnc4)nc3)cn2)CCN1c1ncccn1 (stereo partly drawn) [Example 63, 3-(((R)-4-(5-((6-(1H-imidazol-1-yl)pyridin-3-yl)ethynyl)pyrimidin-2-yl)-1-(pyrimidin-2-yl)piperazin-2-yl)methoxy)-2-fluoropropan-1-ol] |
| 442 | 2.71 nM | ≥ 1200 nM |  | COC[C@H]1CN(c2ncc(C#Cc3ccc(-c4cnco4)nc3)cn2)CCN1c1ccnc(F)c1 [Example 64, (R)-5-(5-((2-(4-(2-fluoropyridin-4-yl)-3-(methoxymethyl)piperazin-1-yl)pyrimidin-5-yl)ethynyl)pyridin-2-yl)oxazole] |
| 1093 | 1.1 nM | ≥ 1200 nM |  | CNCC1CN(c2cc(F)ncn2)CCN1c1ncc(C#Cc2ccc(-c3cnco3)nc2)cn1 (stereo not drawn) [Example 65, 1-(4-(6-fluoropyrimidin-4-yl)-1-(5-((6-(oxazol-5-yl)pyridin-3-yl)ethynyl)pyrimidin-2-yl)piperazin-2-yl)-N-methylmethanamine] |
| 706 | 1.7 nM | ≥ 1200 nM |  | COC[C@H]1CN(c2ncc(C#Cc3ccc(-c4cnco4)nc3)cn2)CCN1c1ncc(OCCF)cn1 [Example 66, (R)-5-(5-((2-(4-(5-(2-fluoroethoxy)pyrimidin-2-yl)-3-(methoxymethyl)piperazin-1-yl)pyrimidin-5-yl)ethynyl)pyridin-2-yl)oxazole] |
| 798 | 1.5 nM | ≥ 1200 nM |  | OC(CF)COC[C@H]1CN(c2ncc(C#Cc3ccc(-c4cnco4)nc3)cn2)CCN1c1ncncn1 (stereo partly drawn) [Example 67, 1-fluoro-3-(((R)-4-(5-((6-(oxazol-5-yl)pyridin-3-yl)ethynyl)pyrimidin-2-yl)-1-(1,3,5-triazin-2-yl)piperazin-2-yl)methoxy)propan-2-ol] |
| 469 | 2.56 nM | ≥ 1200 nM |  | COC[C@H]1CN(c2ncc(C#Cc3ccc(N4CC(F)C4)nc3)cn2)CCN1c1ncccn1 [Example 68, (R)-5-((6-(3-fluoroazetidin-1-yl)pyridin-3-yl)ethynyl)-2-(3-(methoxymethyl)-4-(pyrimidin-2-yl)piperazin-1-yl)pyrimidine] |
| 183 | 6.57 nM | ≥ 1200 nM |  | COC[C@H]1CN(c2ncc(C#Cc3ccc(-n4ccnc4)nc3)cn2)CCN1c1cncc(F)n1 [Example 69, (R)-5-((6-(1H-imidazol-1-yl)pyridin-3-yl)ethynyl)-2-(4-(6-fluoropyrazin-2-yl)-3-(methoxymethyl)piperazin-1-yl)pyrimidine] |
| 472 | 2.54 nM | ≥ 1200 nM |  | FCCOC[C@H]1CN(c2ncc(C#Cc3ccc(-n4cnnc4)nc3)cn2)CCN1c1ncncn1 [Example 70, (R)-2-(4-(5-((6-(4H-1,2,4-triazol-4-yl)pyridin-3-yl)ethynyl)pyrimidin-2-yl)-2-((2-fluoroethoxy)methyl)piperazin-1-yl)-1,3,5-triazine] |
| 293 | 4.09 nM | ≥ 1200 nM |  | FCCOC[C@H]1CN(c2ncc(C#Cc3ccc(-n4cnnc4)nc3)cn2)CCN1c1ncccn1 [Example 71, (R)-5-((6-(4H-1,2,4-triazol-4-yl)pyridin-3-yl)ethynyl)-2-(3-((2-fluoroethoxy)methyl)-4-(pyrimidin-2-yl)piperazin-1-yl)pyrimidine] |
| 617 | 1.94 nM | ≥ 1200 nM |  | COC[C@H]1CN(c2ncc(C#Cc3ccc(N4CC[C@H](F)C4)nc3)cn2)CCN1c1ncccn1 [Example 72, 5-((6-((S)-3-fluoropyrrolidin-1-yl)pyridin-3-yl)ethynyl)-2-((R)-3-(methoxymethyl)-4-(pyrimidin-2-yl)piperazin-1-yl)pyrimidine] |
| 618 | 1.94 nM | ≥ 1200 nM |  | FCCCOC[C@H]1CN(c2ncc(C#Cc3ccc(-c4cnco4)nc3)cn2)CCN1c1ncncn1 [Example 74, (R)-5-(5-((2-(3-((3-fluoropropoxy)methyl)-4-(1,3,5-triazin-2-yl)piperazin-1-yl)pyrimidin-5-yl)ethynyl)pyridin-2-yl)oxazole] |
| 1312 | 0.915 nM | ≥ 1200 nM |  | FCCOC[C@H]1CN(c2ncc(C#Cc3ccc(N4CCn5cnnc5C4)nc3)cn2)CCN1c1ncncn1 [Example 75, (R)-7-(5-((2-(3-((2-fluoroethoxy)methyl)-4-(1,3,5-triazin-2-yl)piperazin-1-yl)pyrimidin-5-yl)ethynyl)pyridin-2-yl)-5,6,7,8-tetrahydro-[1,2,4]triazolo[4,3-a]pyrazine] |
